Values after ≈ are worked out from the molar mass of the structure shown.

Test system in one data set: not listed separately
Kind of data set: Solubility (shaking flask). The class given is physicochemical. As to conditions: phosphate buffer solution (PBS), aqueous buffer, thermodynamic from solid; PBS; 37° C. for 24 hours. The procedure:
The solubility for certain compounds were determined using the following protocol and procedure. 1) The solution, sterile water or phosphate buffer solution (PBS), was added to the test compound tube to make the final concentration 10 mg/mL. 2) The sample tube was vortexed and incubated at 37° C. for 24 hours. During the incubation period, the sample tube was vortexed several times. 3) After the incubation, vortex the tube and centrifuge the tube at 13,000 rpm for 10 mins using an Eppendorf Centrifuge Model 5415C. If the solution was still cloudy, centrifuge it for longer until a clear supernatant was achieved. 4) The supernatant was diluted to 1×, 10× and 100× in 50% ACN in water. 5) A six point standard curve was prepared separately to make the final concentrations of 1 μg/mL, 5 μg/mL, 10 μg/mL, 20 μg/mL, 40 μg/mL and 60 μg/mL. 6) Samples were quantified using an HPLC with UV detector. 7) From the three concentrations of 1×, 10× and 100× supernatant, choose the value, which was fallen into the standard curve range (1 ug/mL-60 ug/mL), as the final result. If all the results were out of the curve range, adjust using a dilution factor to make the value within the curve range.
On to `CCCCCC(=O)OC[C@H]1O[C@@H](n2cc3c4c(ncnc42)NC(=O)C=C3N)[C@@](C)(O)[C@@H]1OC(=O)CCCCC` (stereo in doubt) [Compound 102, Hexanoic acid 5-(9-amino-7-oxo-6,7-dihydro-2,3,5,6-tetraaza-benzo[cd]azulen-2-yl)-3-hexanoyloxy-4-hydroxy-4-methyl-tetrahydro-furan-2-ylmethyl ester], for which the solubility – broadly, the dissolved amount per volume that the medium holds – at 24 h turned out to be 0.011 mg/mL (≈ 20.2 µM).

`CC(=O)OC[C@H]1O[C@@H](n2cc3c4c(ncnc42)NC(=O)C=C3N)[C@@](C)(O)[C@@H]1O` (stereo in doubt) [Compound 107, Acetic acid 5-(9-amino-7-oxo-6,7-dihydro-2,3,5,6-tetraaza-benzo[cd]azulen-2-yl)-3,4-dihydroxy-4-methyl-tetrahydro-furan-2-ylmethylester] gave a solubility at 24 h of 9.15 mg/mL (≈ 23500 µM).

For the compound `CC(=O)O[C@@H]1[C@@H](CO)O[C@@H](n2cc3c4c(ncnc42)NC(=O)C=C3N)C1(C)O` (stereo in doubt) [Compound 114, Acetic acid 5-(9-amino-7-oxo-6,7-dihydro-2,3,5,6-tetraaza-benzo[cd]azulen-2-yl)-4-hydroxy-2-hydroxymethyl-4-methyl-tetrahydro-furan-3-yl ester], the solubility at 24 h amounted to 2.95 mg/mL (≈ 7580 µM).

Consider `CC(=O)OC[C@H]1O[C@@H](n2cc3c4c(ncnc42)NC(=O)C=C3NC(=O)OCOC(=O)C(C)C)C(C)(O)[C@@H]1OC(C)=O` (stereo in doubt) [Compound 118, Isobutyric acid 2-(4-acetoxy-5-acetoxymethyl-3-hydroxy-3-methyl-tetrahydro-furan-2-yl)-7-oxo-6,7-dihydro-2H-2,3,5,6-tetraaza-benzo[cd]azulen-9-ylcarbamoyloxymethyl ester], for which the solubility at 24 h amounted to 0.06 mg/mL (≈ 104 µM).

Compound `Cc1oc(=O)oc1COC(=O)NC1=CC(=O)Nc2ncnc3c2c1cn3[C@@H]1O[C@H](COC(=O)C(C)C)[C@@H](OC(=O)C(C)C)C1(C)O` (stereo in doubt) [Compound 119, Isobutyric acid 4-hydroxy-3-isobutyryloxy-4-methyl-5-[9-(5-methyl-2-oxo-[1,3]dioxol-4-ylmethoxycarbonylamino)-7-oxo-6,7-dihydro-2,3,5,6-tetraaza-benzo[cd]azulen-2-yl]-tetrahydro-furan-2-ylmethyl ester] had a solubility at 24 h of 0.006 mg/mL (≈ 9.32 µM). This solubility at 24 h lies about 10-fold lower than the previous one.

`CC(=O)OCOC(=O)NC1=CC(=O)Nc2ncnc3c2c1cn3[C@@H]1O[C@H](COC(C)=O)C(OC(C)=O)[C@@]1(C)O` (stereo in doubt) [Compound 120, Acetic acid 3-acetoxy-5-(9-acetoxymethoxycarbonylamino-7-oxo-6,7-dihydro-2,3,5,6-tetraaza-benzo[cd]azulen-2-yl)-4-hydroxy-4-methyl-tetrahydro-furan-2-ylmethylester] returned a solubility at 24 h of 0.06 mg/mL (≈ 110 µM).

Take `CCC(=O)OC[C@H]1O[C@@H](n2cc3c4c(ncnc42)NC(=O)C=C3N)C(C)(O)[C@@H]1OC(=O)CC` (stereo in doubt) [Compound 130, Propionic acid 5-(9-amino-7-oxo-6,7-dihydro-2,3,5,6-tetraaza-benzo[cd]azulen-2-yl)-4-hydroxy-4-methyl-3-propionyloxy-tetrahydro-furan-2-ylmethyl ester]: the concentration in solution (solubility at 24 h) was 0.85 mg/mL (≈ 1850 µM).

`CCC(=O)OC[C@H]1O[C@@H](n2cc3c4c(ncnc42)NC(=O)C=C3N)C(C)(O)[C@@H]1O` (stereo in doubt) [Compound 131, Propionic acid 5-(9-amino-7-oxo-6,7-dihydro-2,3,5,6-tetraaza-benzo[cd]azulen-2-yl)-3,4-dihydroxy-4-methyl-tetrahydro-furan-2-ylmethylester] registered a solubility at 24 h of 8.06 mg/mL (≈ 20000 µM).

For `CC(=O)OC1(C)[C@H](OC(=O)C(C)C)[C@@H](COC(=O)C(C)C)O[C@H]1n1cc2c3c(ncnc31)NC(=O)C=C2N` (stereo in doubt) [Compound 133, Isobutyric acid 4-acetoxy-5-(9-amino-7-oxo-6,7-dihydro-2,3,5,6-tetraaza-benzo[cd]azulen-2-yl)-3-isobutyryloxy-4-methyl-tetrahydro-furan-2-ylmethyl ester], the concentration in solution (solubility at 24 h) was 0.017 mg/mL (≈ 32.1 µM).

With `CC(C)C(=O)OCOC(=O)NC1=CC(=O)Nc2ncnc3c2c1cn3[C@@H]1O[C@H](CO)[C@@H](OC(=O)[C@@H](N)C(C)C)[C@]1(C)O` [Compound 110, 2-Amino-3-methyl-butyric acid 4-hydroxy-2-hydroxymethyl-5-(9-isobutyryloxymethoxycarbonyl-amino-7-oxo-6,7-dihydro-2,3,5,6-tetraaza-benzo[cd]azulen-2-yl)-4-methyl-tetrahydro-furan-3-yl ester], the solubility at 24 h turned out to be 8.16 mg/mL (≈ 13800 µM).

The compound `CC(=O)OCOC(=O)NC1=CC(=O)Nc2ncnc3c2c1cn3[C@@H]1O[C@H](COC(=O)C(C)C)[C@@H](OC(=O)C(C)C)[C@@]1(C)O` [Compound 111, Isobutyric acid 5-(9-acetoxymethoxycarbonylamino-7-oxo-6,7-dihydro-2,3,5,6-tetraaza-benzo[cd]azulen-2-yl)-4-hydroxy-2-isobutyryloxymethyl-4-methyl-tetrahydro-furan-3-yl ester] returned a solubility at 24 h of 0.002 mg/mL (≈ 3.31 µM). Against the preceding compound, the solubility at 24 h is about 4100-fold lower.

As to `CC(=O)O[C@@H]1[C@@H](CO)O[C@@H](n2cc3c4c(ncnc42)NC(=O)C=C3NC(=O)OCOC(=O)C(C)C)[C@]1(C)O` [Compound 112, Isobutyric acid 2-(4-acetoxy-3-hydroxy-5-hydroxymethyl-3-methyl-tetrahydro-furan-2-yl)-7-oxo-6,7-dihydro-2H-2,3,5,6-tetraaza-benzo[cd]azulen-9-ylcarbamoyloxymethyl ester], the solubility at 24 h is 0.08 mg/mL (≈ 150 µM).

Take `CC(C)C(=O)OCOC(=O)NC1=CC(=O)Nc2ncnc3c2c1cn3[C@@H]1O[C@H](CO)[C@@H](OC(=O)C(C)C)C1(C)O` (stereo partly shown) [Compound 125, Isobutyric acid 4-hydroxy-2-hydroxymethyl-5-(9-isobutyryloxymethoxycarbonyl-amino-7-oxo-6,7-dihydro-2,3,5,6-tetraaza-benzo[cd]azulen-2-yl)-4-methyl-tetrahydro-furan-3-yl ester]: the solubility at 24 h worked out at 0.051 mg/mL (≈ 90.8 µM).

In the case of `Cc1oc(=O)oc1COC(=O)NC1=CC(=O)Nc2ncnc3c2c1cn3[C@@H]1O[C@H](CO)[C@@H](O)C1(C)O` (stereo partly shown) [Compound 126, [2-(3,4-Dihydroxy-5-hydroxymethyl-3-methyl-tetrahydro-furan-2-yl)-7-oxo-6,7-dihydro-2H-2,3,5,6-tetraaza-benzo[cd]azulen-9-yl]-carbamic acid5-methyl-2-oxo-[1,3]dioxol-4-ylmethyl ester], the concentration in solution (solubility at 24 h) was 0.04 mg/mL (≈ 79.5 µM).

Regarding `CCC(=O)OC[C@H]1O[C@@H](n2cc3c4c(ncnc42)NC(=O)C=C3N)C(C)(OC(=O)CC)[C@@H]1OC(=O)CC` (stereo partly shown) [Compound 127, Propionic acid 5-(9-amino-7-oxo-6,7-dihydro-2,3,5,6-tetraaza-benzo[cd]azulen-2-yl)-4-methyl-3,4-bis-propionyloxy-tetrahydro-furan-2-ylmethyl ester], the solubility at 24 h stood at 0.133 mg/mL (≈ 258 µM).

Regarding `CC(C)C(=O)OC[C@H]1O[C@@H](n2cc3c4c(ncnc42)NC(=O)C=C3N)C(C)(OC(=O)C(C)C)[C@@H]1OC(=O)C(C)C` (stereo partly shown) [Compound 132, Isobutyric acid 5-(9-amino-7-oxo-6,7-dihydro-2,3,5,6-tetraaza-benzo[cd]azulen-2-yl)-3,4-bis-isobutyryloxy-4-methyl-tetrahydro-furan-2-ylmethyl ester], the solubility at 24 h was 0.044 mg/mL (≈ 78.9 µM).

The next data set deals with Caco-2 cells. Kind of data set: in vitro. Type of data set: in vitro ADME.
Conditions: not given
The procedure:
Caco-2 cells were maintained in Dulbecco's Modification of Eagle's Medium (DMEM) with sodium pyruvate, Glutmax supplemented with 1% Pen/Strep, 1% NEAA and 10% fetal bovine serum in an incubator set at 37° C., 90% humidity and 5% CO2. Caco-2 cells between passage 43 and 61 were grown to confluence over at least 21-days on 24 well PET (polyethylene-terephthalate) plates (BD Biosciences). Experiments were run using a new HBSS donor buffer from Invitrogen containing additional 10 mM HEPES, 15 mM Glucose with pH adjusted to pH 6.5. The receiver well used HBSS buffer supplemented with 1% BSA and the pH adjusted to pH 7.4. After an initial equilibration with transport buffer, TEER values were read to test membrane integrity. The experiment was started by the addition of buffers containing test compounds and 100 μl of solution is taken at 1 and 2 hrs from the receiver compartment. Removed buffer was replaced with fresh buffer and a correction was applied to all calculations for the removed material. Each compound was tested in 2 separate replicate wells for each condition. All samples were immediately collected into 400 μl 100% acetonitrile acid to precipitate protein and stabilize test compounds. Cells were dosed on the apical or basolateral side to determine forward (A to B) and reverse (B to A) permeability. Permeability through a cell free trans-well was also determined as a measure of cellular permeability through the membrane and non-specific binding. To test for non-specific binding and compound instability the total amount of drug was quantitated at the end of the experiment and compared to the material present in the original dosing solution as a percent recovery. Samples were analyzed by LC/MS/MS.
The apparent permeability, Papp, and % recovery were calculated as follows: […]
where, • dR/dt is the slope of the cumulative concentration in the receiver compartment versus time in μM/s based on receiver concentrations measured at 60 and 120 minute. • Vr and Vd is the volume in the receiver and donor compartment in cm^3, respectively. • A is the area of the cell monolayer (0.33 cm^2). • D0 and D120 is the measured donor concentration at the beginning and end of the experiment, respectively. • R120 is the receiver concentration at the end of the experiment (120 minutes).
The apparent permeability for certain compounds were determined using the above procedure.
For `CCCCCC(=O)OC[C@H]1O[C@@H](n2cc3c4c(ncnc42)NC(=O)C=C3N)[C@@](C)(O)[C@@H]1OC(=O)CCCCC` (stereo in doubt) [Compound 102, Hexanoic acid 5-(9-amino-7-oxo-6,7-dihydro-2,3,5,6-tetraaza-benzo[cd]azulen-2-yl)-3-hexanoyloxy-4-hydroxy-4-methyl-tetrahydro-furan-2-ylmethyl ester], the “Permeability Papp (A to B) × 10^−6 cm/s (Caco-2 A-B)” value (from here on “Permeability Papp”) is “high”.

Take `CC(=O)OC[C@H]1O[C@@H](n2cc3c4c(ncnc42)NC(=O)C=C3N)[C@@](C)(O)[C@@H]1O` (stereo in doubt) [Compound 107, Acetic acid 5-(9-amino-7-oxo-6,7-dihydro-2,3,5,6-tetraaza-benzo[cd]azulen-2-yl)-3,4-dihydroxy-4-methyl-tetrahydro-furan-2-ylmethylester]: the “Permeability Papp” value is given as “low”.

With `CC(=O)O[C@@H]1[C@@H](CO)O[C@@H](n2cc3c4c(ncnc42)NC(=O)C=C3N)C1(C)O` (stereo in doubt) [Compound 114, Acetic acid 5-(9-amino-7-oxo-6,7-dihydro-2,3,5,6-tetraaza-benzo[cd]azulen-2-yl)-4-hydroxy-2-hydroxymethyl-4-methyl-tetrahydro-furan-3-yl ester], the “Permeability Papp” value is recorded as “medium”.

These data come from patent US20090062223A1, “AMINO TRICYCLIC-NUCLEOSIDE COMPOUNDS, COMPOSITIONS, AND METHODS OF USE” (GENELABS TECHNOLOGIES, INC., priority 2007, published 2009).
